Data published in patent publication US8933230B2, “Phosphorus-containing group-substituted quinoline, its preparation process, medical composition containing the compounds and application” (priority 2011, dated 2015).

Tests used:
Assay in all cases: KinomeScan kinase panel
Assay type in all cases: binding
[1] = molecular target: T1, ABL1(F317I)-nonphosphorylated (Homo sapiens, UniProt P00519, F317I)
T1 construct: purchased DiscoveRx Corporation (KinomeScan)
Method in brief: (§1)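 Tested at 1000 nM in the KinomeScan 442-kinase competition binding panel, with inhibition of each kinase or mutant reported at that single concentration.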

[2] = molecular target: T2, ABL1(T315I)-nonphosphorylated (Homo sapiens, UniProt P00519, T315I)
T2 construct: purchased DiscoveRx Corporation (KinomeScan)
Method in brief: as §1

AKT1 = molecular target: T3, AKT1 (Homo sapiens, UniProt P31749)
T3 construct: purchased DiscoveRx Corporation (KinomeScan)
Method in brief: as §1

AKT3 = molecular target: T4, AKT3 (Homo sapiens, UniProt Q9Y243)
T4 construct: purchased DiscoveRx Corporation (KinomeScan)
Method in brief: as §1

AXL = molecular target: T5, AXL (Homo sapiens, UniProt P30530)
T5 construct: purchased DiscoveRx Corporation (KinomeScan)
Method in brief: as §1

BRSK2 = molecular target: T6, BRSK2 (Homo sapiens, UniProt Q8IWQ3)
T6 construct: purchased DiscoveRx Corporation (KinomeScan)
Method in brief: as §1

CDK2 = molecular target: T7, CDK2 (Homo sapiens, UniProt P24941)
T7 construct: purchased DiscoveRx Corporation (KinomeScan)
Method in brief: as §1

CHEK2 = molecular target: T8, CHEK2 (Homo sapiens, UniProt O96017)
T8 construct: purchased DiscoveRx Corporation (KinomeScan)
Method in brief: as §1

CSNK1G3 = molecular target: T9, CSNK1G3 (Homo sapiens, UniProt Q9Y6M4)
T9 construct: purchased DiscoveRx Corporation (KinomeScan)
Method in brief: as §1

CSNK2A2 = molecular target: T10, CSNK2A2 (Homo sapiens, UniProt P19784)
T10 construct: purchased DiscoveRx Corporation (KinomeScan)
Method in brief: as §1

DYRK2 = molecular target: T11, DYRK2 (Homo sapiens, UniProt Q92630)
T11 construct: purchased DiscoveRx Corporation (KinomeScan)
Method in brief: as §1

EIF2AK1 = molecular target: T12, EIF2AK1 (Homo sapiens, UniProt Q9BQI3)
T12 construct: purchased DiscoveRx Corporation (KinomeScan)
Method in brief: as §1

FAK = molecular target: T13, FAK (Homo sapiens, UniProt Q05397)
T13 construct: purchased DiscoveRx Corporation (KinomeScan)
Method in brief: as §1

FLT3(ITD) = test system: FLT3(ITD)
Method in brief: as §1

FLT3(K663Q) = molecular target: T14, FLT3(K663Q) (Homo sapiens, UniProt P36888, K663Q)
T14 construct: purchased DiscoveRx Corporation (KinomeScan)
Method in brief: as §1

FLT3(N841L) = test system: FLT3(N841L)
Method in brief: as §1

FYN = molecular target: T15, FYN (Homo sapiens, UniProt P06241)
T15 construct: purchased DiscoveRx Corporation (KinomeScan)
Method in brief: as §1

LATS2 = molecular target: T16, LATS2 (Homo sapiens, UniProt Q9NRM7)
T16 construct: purchased DiscoveRx Corporation (KinomeScan)
Method in brief: as §1

LOK = molecular target: T17, LOK (Homo sapiens, UniProt O94804)
T17 construct: purchased DiscoveRx Corporation (KinomeScan)
Method in brief: as §1

MELK = molecular target: T18, MELK (Homo sapiens, UniProt Q14680)
T18 construct: purchased DiscoveRx Corporation (KinomeScan)
Method in brief: as §1

MET(Y1235D) = molecular target: T19, MET(Y1235D) (Homo sapiens, UniProt P08581, Y1235D)
T19 construct: purchased DiscoveRx Corporation (KinomeScan)
Method in brief: as §1

NEK1 = molecular target: T20, NEK1 (Homo sapiens, UniProt Q96PY6)
T20 construct: purchased DiscoveRx Corporation (KinomeScan)
Method in brief: as §1

NEK2 = molecular target: T21, NEK2 (Homo sapiens, UniProt P51955)
T21 construct: purchased DiscoveRx Corporation (KinomeScan)
Method in brief: as §1

NEK3 = molecular target: T22, NEK3 (Homo sapiens, UniProt P51956)
T22 construct: purchased DiscoveRx Corporation (KinomeScan panel)
Method in brief: as §1

PIK3CA(E545A) = molecular target: T23, PIK3CA(E545A) (Homo sapiens, UniProt P42336, E545A)
T23 construct: purchased DiscoveRx Corporation (KinomeScan)
Method in brief: as §1

PIK3CG = molecular target: T24, PIK3CG (Homo sapiens, UniProt P48736)
T24 construct: purchased DiscoveRx Corporation (KinomeScan)
Method in brief: as §1

PIM1 = molecular target: T25, PIM1 (Homo sapiens, UniProt P11309)
T25 construct: purchased DiscoveRx Corporation (KinomeScan)
Method in brief: as §1

PIP5K1C = molecular target: T26, PIP5K1C (Homo sapiens, UniProt O60331)
T26 construct: purchased DiscoveRx Corporation (KinomeScan)
Method in brief: as §1

PKN2 = molecular target: T27, PKN2 (Homo sapiens, UniProt Q16513)
T27 construct: purchased DiscoveRx Corporation (KinomeScan)
Method in brief: as §1

PRKX = molecular target: T28, PRKX (Homo sapiens, UniProt P51817)
T28 construct: purchased DiscoveRx Corporation
Method in brief: as §1

RAF1 = molecular target: T29, RAF1 (Homo sapiens, UniProt P04049)
T29 construct: purchased DiscoveRx Corporation
Method in brief: as §1

ROCK2 = molecular target: T30, ROCK2 (Homo sapiens, UniProt O75116)
T30 construct: purchased DiscoveRx Corporation
Method in brief: as §1

ROS1 = molecular target: T31, ROS1 (Homo sapiens, UniProt P08922)
T31 construct: purchased DiscoveRx Corporation
Method in brief: as §1

SLK = molecular target: T32, SLK (Homo sapiens, UniProt Q9H2G2)
T32 construct: purchased DiscoveRx Corporation (KinomeScan)
Method in brief: as §1

SgK110 = molecular target: T33, SgK110 (Homo sapiens, UniProt P0C264)
T33 construct: purchased DiscoveRx Corporation (KinomeScan)
Method in brief: as §1

YANK2 = molecular target: T34, YANK2 (Homo sapiens, UniProt Q9NY57)
T34 construct: purchased DiscoveRx Corporation (KinomeScan service)
Method in brief: as §1

T26 sequence (O60331 whole entry): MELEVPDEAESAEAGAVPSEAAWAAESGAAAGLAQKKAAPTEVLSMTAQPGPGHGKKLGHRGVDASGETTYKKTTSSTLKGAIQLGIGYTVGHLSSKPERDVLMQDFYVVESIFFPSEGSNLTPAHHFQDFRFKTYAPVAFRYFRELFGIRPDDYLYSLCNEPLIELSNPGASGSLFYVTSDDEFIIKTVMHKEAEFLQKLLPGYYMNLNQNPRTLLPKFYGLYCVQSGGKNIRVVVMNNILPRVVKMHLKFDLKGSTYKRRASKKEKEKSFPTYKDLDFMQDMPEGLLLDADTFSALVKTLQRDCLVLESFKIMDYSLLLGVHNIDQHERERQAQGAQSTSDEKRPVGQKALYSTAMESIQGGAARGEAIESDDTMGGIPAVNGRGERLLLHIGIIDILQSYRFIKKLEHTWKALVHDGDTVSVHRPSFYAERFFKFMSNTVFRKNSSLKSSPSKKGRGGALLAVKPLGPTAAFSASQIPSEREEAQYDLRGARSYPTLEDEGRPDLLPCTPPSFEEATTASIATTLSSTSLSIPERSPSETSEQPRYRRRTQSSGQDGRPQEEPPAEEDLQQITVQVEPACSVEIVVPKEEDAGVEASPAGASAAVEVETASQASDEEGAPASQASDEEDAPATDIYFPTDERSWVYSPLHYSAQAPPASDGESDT
T22 sequence (P51956 whole entry): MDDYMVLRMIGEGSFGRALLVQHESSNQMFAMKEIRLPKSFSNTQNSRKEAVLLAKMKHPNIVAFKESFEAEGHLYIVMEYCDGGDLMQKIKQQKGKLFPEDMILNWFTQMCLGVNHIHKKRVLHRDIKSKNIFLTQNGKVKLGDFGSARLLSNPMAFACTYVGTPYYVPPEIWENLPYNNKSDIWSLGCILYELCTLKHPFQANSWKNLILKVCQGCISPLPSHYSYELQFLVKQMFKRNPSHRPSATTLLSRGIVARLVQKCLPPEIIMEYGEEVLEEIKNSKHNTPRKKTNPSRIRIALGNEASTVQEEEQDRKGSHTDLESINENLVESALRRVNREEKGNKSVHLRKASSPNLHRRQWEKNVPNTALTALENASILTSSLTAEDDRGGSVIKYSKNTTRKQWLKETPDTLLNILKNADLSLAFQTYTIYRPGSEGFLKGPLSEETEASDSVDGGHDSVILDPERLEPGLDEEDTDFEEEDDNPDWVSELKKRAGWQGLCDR
T9 sequence (Q9Y6M4 whole entry): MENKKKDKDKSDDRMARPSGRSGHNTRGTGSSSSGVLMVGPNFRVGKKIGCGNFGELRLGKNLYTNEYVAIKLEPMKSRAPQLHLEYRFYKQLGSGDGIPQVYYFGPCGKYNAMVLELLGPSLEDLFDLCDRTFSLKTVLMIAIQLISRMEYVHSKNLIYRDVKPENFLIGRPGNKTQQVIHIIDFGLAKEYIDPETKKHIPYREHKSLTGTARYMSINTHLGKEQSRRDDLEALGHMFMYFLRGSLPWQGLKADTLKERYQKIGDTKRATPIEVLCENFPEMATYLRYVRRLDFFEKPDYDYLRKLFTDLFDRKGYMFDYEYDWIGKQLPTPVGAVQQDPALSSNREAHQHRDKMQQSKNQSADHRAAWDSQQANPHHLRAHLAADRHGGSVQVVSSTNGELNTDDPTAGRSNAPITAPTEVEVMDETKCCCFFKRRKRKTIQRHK
T28 sequence (P51817 whole entry): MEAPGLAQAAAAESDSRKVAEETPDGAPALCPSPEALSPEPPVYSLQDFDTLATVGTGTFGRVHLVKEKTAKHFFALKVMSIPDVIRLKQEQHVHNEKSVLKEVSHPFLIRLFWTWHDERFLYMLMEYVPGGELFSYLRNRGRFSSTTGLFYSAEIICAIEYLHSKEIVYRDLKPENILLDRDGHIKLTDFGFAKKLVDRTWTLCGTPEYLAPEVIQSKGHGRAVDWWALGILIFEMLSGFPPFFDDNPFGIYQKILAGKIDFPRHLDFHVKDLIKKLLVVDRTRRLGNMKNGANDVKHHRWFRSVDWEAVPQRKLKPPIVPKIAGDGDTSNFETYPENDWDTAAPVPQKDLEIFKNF
T21 sequence (P51955 whole entry): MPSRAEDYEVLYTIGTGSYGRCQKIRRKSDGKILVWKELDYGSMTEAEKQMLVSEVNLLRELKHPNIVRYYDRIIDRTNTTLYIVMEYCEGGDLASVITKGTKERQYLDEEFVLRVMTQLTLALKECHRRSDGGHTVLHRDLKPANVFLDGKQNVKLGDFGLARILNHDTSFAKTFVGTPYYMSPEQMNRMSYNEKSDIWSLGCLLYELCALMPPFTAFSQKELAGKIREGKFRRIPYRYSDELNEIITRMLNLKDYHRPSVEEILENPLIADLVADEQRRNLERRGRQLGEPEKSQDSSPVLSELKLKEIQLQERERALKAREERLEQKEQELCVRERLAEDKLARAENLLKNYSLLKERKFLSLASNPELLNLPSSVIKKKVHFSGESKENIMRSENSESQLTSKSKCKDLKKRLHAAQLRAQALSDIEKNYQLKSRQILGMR
T24 sequence (P48736 whole entry): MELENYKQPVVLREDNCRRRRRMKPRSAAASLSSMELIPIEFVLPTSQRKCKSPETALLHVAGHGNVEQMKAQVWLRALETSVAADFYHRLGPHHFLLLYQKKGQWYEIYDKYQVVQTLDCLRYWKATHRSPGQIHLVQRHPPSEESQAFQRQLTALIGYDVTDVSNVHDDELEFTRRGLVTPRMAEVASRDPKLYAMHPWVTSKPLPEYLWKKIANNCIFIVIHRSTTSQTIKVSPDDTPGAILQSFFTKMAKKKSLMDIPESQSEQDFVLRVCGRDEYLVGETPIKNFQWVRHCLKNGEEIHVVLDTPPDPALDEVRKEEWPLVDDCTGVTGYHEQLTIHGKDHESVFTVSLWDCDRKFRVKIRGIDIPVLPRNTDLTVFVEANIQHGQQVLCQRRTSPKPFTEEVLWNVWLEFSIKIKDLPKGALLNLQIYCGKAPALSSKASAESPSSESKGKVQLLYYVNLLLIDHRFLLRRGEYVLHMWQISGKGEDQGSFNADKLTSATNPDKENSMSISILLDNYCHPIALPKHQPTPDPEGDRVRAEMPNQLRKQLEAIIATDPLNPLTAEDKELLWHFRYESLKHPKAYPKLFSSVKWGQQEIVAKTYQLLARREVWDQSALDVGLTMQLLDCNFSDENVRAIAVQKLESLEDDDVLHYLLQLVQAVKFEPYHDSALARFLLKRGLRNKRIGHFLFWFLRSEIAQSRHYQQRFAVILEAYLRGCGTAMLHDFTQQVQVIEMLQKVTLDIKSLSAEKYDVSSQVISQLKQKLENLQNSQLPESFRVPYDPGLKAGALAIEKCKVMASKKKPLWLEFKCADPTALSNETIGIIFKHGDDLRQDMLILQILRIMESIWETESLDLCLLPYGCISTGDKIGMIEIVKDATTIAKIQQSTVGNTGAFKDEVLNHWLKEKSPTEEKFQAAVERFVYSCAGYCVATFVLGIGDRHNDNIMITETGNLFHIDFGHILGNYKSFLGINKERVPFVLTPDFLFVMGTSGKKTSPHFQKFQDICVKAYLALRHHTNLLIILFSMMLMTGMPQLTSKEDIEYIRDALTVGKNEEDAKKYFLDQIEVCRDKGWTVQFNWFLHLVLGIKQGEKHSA
T6 sequence (Q8IWQ3 whole entry): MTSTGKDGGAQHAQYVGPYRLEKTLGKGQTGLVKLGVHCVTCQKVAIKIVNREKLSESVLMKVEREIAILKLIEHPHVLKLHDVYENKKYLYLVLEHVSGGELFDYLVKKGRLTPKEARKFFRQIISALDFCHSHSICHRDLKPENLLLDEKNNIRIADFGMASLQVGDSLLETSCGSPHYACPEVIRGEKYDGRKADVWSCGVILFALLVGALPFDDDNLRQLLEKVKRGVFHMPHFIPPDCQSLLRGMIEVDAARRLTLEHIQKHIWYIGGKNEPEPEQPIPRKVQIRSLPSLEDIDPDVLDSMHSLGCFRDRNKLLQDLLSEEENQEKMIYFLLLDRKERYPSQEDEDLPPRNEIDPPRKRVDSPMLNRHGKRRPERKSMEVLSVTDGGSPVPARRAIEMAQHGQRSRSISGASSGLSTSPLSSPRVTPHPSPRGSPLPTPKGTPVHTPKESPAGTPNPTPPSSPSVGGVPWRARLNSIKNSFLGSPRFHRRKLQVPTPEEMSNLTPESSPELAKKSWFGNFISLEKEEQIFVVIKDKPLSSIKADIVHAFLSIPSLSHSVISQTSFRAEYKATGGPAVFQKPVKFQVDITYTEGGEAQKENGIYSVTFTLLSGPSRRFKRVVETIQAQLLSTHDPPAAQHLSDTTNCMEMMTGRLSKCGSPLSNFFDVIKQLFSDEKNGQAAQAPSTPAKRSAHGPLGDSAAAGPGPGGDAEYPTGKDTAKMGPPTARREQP
T33 sequence (P0C264 whole entry): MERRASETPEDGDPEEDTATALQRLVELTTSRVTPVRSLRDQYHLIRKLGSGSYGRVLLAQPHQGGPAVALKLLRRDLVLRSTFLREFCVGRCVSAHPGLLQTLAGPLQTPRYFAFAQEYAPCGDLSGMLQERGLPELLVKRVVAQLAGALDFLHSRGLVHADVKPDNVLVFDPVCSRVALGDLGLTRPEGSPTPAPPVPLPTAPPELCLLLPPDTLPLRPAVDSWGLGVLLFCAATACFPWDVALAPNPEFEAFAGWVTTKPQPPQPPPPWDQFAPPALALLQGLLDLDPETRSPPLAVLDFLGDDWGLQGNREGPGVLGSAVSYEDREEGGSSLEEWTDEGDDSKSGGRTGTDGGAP
T25 sequence (P11309 whole entry): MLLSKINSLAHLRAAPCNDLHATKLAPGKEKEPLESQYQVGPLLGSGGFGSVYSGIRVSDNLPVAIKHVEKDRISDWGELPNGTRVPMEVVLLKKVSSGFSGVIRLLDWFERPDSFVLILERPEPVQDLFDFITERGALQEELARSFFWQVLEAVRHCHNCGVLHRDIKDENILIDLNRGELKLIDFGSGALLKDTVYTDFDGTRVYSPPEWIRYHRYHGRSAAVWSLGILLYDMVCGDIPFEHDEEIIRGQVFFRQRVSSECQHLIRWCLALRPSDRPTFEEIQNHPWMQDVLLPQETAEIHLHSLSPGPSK

## CCOP(=O)(CN1CCC(COc2cc3nccc(Oc4ccc(NC(=O)C5(C(=O)Nc6ccc(F)cc6)CC5)cc4F)c3cc2OC)CC1)OCC [Example 10, N1-[4-[[7-[[1-(diethoxyphosphorylmethyl)-4-piperidinyl]methoxyl]-6-methoxyl-4-quinolyl]oxyl]-3-fluorophenyl]-N1′-(4-fluorophenyl)cyclopropane-1,1-dicarboxamide]
[1]
  % Ctrl@1000 nM: 42 % Ctrl
[2]
  % Ctrl@1000 nM: 3.8 % Ctrl
AKT1
  % Ctrl@1000 nM: 100 % Ctrl
AKT3
  % Ctrl@1000 nM: 100 % Ctrl
AXL
  % Ctrl@1000 nM: 8 % Ctrl
BRSK2
  % Ctrl@1000 nM: 100 % Ctrl
CDK2
  % Ctrl@1000 nM: 100 % Ctrl
CHEK2
  % Ctrl@1000 nM: 35 % Ctrl
CSNK1G3
  % Ctrl@1000 nM: 100 % Ctrl
CSNK2A2
  % Ctrl@1000 nM: 100 % Ctrl
DYRK2
  % Ctrl@1000 nM: 100 % Ctrl
EIF2AK1
  % Ctrl@1000 nM: 100 % Ctrl
FAK
  % Ctrl@1000 nM: 51 % Ctrl
FLT3(ITD)
  % Ctrl@1000 nM: 2.8 % Ctrl
FLT3(K663Q)
  % Ctrl@1000 nM: 0.55 % Ctrl
FLT3(N841L)
  % Ctrl@1000 nM: 0 % Ctrl
FYN
  % Ctrl@1000 nM: 48 % Ctrl
LATS2
  % Ctrl@1000 nM: 96 % Ctrl
LOK
  % Ctrl@1000 nM: 0 % Ctrl
MELK
  % Ctrl@1000 nM: 29 % Ctrl
MET(Y1235D)
  % Ctrl@1000 nM: 4.4 % Ctrl
NEK1
  % Ctrl@1000 nM: 100 % Ctrl
NEK2
  % Ctrl@1000 nM: 100 % Ctrl
NEK3
  % Ctrl@1000 nM: 58 % Ctrl
PIK3CA(E545A)
  % Ctrl@1000 nM: 74 % Ctrl
PIK3CG
  % Ctrl@1000 nM: 100 % Ctrl
PIM1
  % Ctrl@1000 nM: 96 % Ctrl
PIP5K1C
  % Ctrl@1000 nM: 100 % Ctrl
PKN2
  % Ctrl@1000 nM: 2.6 % Ctrl
PRKX
  % Ctrl@1000 nM: 81 % Ctrl
RAF1
  % Ctrl@1000 nM: 100 % Ctrl
ROCK2
  % Ctrl@1000 nM: 100 % Ctrl
ROS1
  % Ctrl@1000 nM: 29 % Ctrl
SLK
  % Ctrl@1000 nM: 7.4 % Ctrl
SgK110
  % Ctrl@1000 nM: 100 % Ctrl
YANK2
  % Ctrl@1000 nM: 100 % Ctrl
